Values after ≈ are worked out from the molar mass of the structure shown. Read-outs that look alike come from different tables or passages of the source.
Columns and labels:
Type in all cases: cell-based
[1] = tested on: Staphylococcus epidermis sp-al-1; test: MIC, Staphylococcus epidermis sp-al-1; conditions: SPAL1; Staphylococcus epidermis sp-al-1; read-out: MIC
[2] = tested on: Klebsiella pneumoniae ATCC 10031; test: MIC, Klebsiella pneumoniae ATCC 10031; conditions: ATCC10031; Klebsiella pneumoniae ATCC 10031; read-out: MIC
Salmonella typhosa H901 = test: MIC, Salmonella typhosa H901; conditions: Salmonella enterica, TYPHOSA
[3] = tested on: Pseudomonas aeruginosa IAM 1095; test: MIC, Pseudomonas aeruginosa IAM 1095; conditions: IAM1095; Pseudomonas aeruginosa IAM 1095; read-out: MIC
Serratia marcescens = test: MIC, Serratia marcescens; conditions: read-out: MIC
[4] = tested on: Staphylococcus aureus MS353 A0; test: MIC, Staphylococcus aureus MS353 A0 (macrolide resistant); conditions: MS353A0, macrolide resistant bacteria A group
From the text: (§1) *macrolide resistant bacteria A group (clinical isolates of erythromycin,
(§2) oleandomycin and 16membered macrolide antibiotic resistant strains.)

[5] = tested on: Salmonella enteritidis Gaertner; test: MIC, Salmonella enteritidis Gaertner; conditions: Salmonella enterica; Salmonella enteritidis Gaertner; read-out: MIC
Proteus vulgaris OX19 = test: MIC, Proteus vulgaris OX19; conditions: Proteus vulgaris OX19; read-out: MIC
[6] = tested on: Streptococcus pyogenes N.Y.5; test: MIC, Streptococcus pyogenes N.Y.5; conditions: read-out: MIC
Escherichia coli B = test: MIC, Escherichia coli B
Shigella sonnei E33 = test: MIC, Shigella sonnei E33
[7] = tested on: Bacillus subtilis ATC 6633; test: MIC, Bacillus subtilis ATC 6633; conditions: ATC6633; Bacillus subtilis ATC 6633; read-out: MIC
[8] = tested on: Staphylococcus aureus 0119; test: MIC, Staphylococcus aureus 0119 (macrolide resistant); conditions: macrolide resistant bacteria A group
From the text: as §1, §2

[9] = tested on: Staphylococcus aureus MS353; test: MIC, Staphylococcus aureus MS353; conditions: Staphylococcus aureus MS353; read-out: MIC
[10] = tested on: Escherichia coli NIHJ-JC2; test: MIC, Escherichia coli NIHJ-JC2; conditions: NIHJJC2
[11] = tested on: Streptococcus faecalis 1501; test: MIC, Streptococcus faecalis 1501; conditions: Enterococcus faecalis; Streptococcus faecalis 1501; read-out: MIC
Sarcina lutea ATCC 9341 = test: MIC, Sarcina lutea ATCC 9341; conditions: Micrococcus luteus, ATCC9341
[12] = tested on: Staphylococcus aureus 0127; test: MIC, Staphylococcus aureus 0127 (macrolide resistant)
From the text: as §1, §2

[13] = tested on: Micrococcus flavus ATCC 10240; test: MIC, Micrococcus flavus ATCC 10240; conditions: ATCC10240; Micrococcus flavus ATCC 10240; read-out: MIC
[14] = tested on: Corynebacterium diptheriae P.Y.8; test: MIC, Corynebacterium diptheriae P.Y.8; conditions: Corynebacterium diptheriae P.Y.8; read-out: MIC
[15] = tested on: Streptococcus pyogenes 1022; test: MIC, Streptococcus pyogenes 1022 (macrolide resistant); conditions: macrolide resistant bacteria A group
From the text: as §1, §2

[16] = tested on: Streptococcus agalactiae 1020; test: MIC, Streptococcus agalactiae 1020; conditions: Streptococcus agalactiae 1020; read-out: MIC
[17] = tested on: Staphylococcus aureus ATCC 6538P; test: MIC, Staphylococcus aureus ATCC 6538P; conditions: ATCC6538P, read-out: MIC
[18] = tested on: Shigella flexineri type 3a; test: MIC, Shigella flexineri type 3a; conditions: TYPE3A
[19] = tested on: Staphylococcus aureus MS353 C36; test: MIC, Staphylococcus aureus MS353 C36; conditions: MS353C36
[20] = Staphylococcus aureus 0127, macrolide resistant bacteria A group, read-out: MIC
[21] = Streptococcus pyogenes 1022, read-out: MIC

Row | SMILES | MIC [1] [µg/mL] | MIC [2] [µg/mL] | MIC (Salmonella typhosa H901) [µg/mL] | MIC [3] [µg/mL] | MIC (Serratia marcescens) [µg/mL] | MIC [4] [µg/mL] | MIC [5] [µg/mL] | MIC (Proteus vulgaris OX19) [µg/mL] | MIC [6] [µg/mL] | MIC (Escherichia coli B) [µg/mL] | MIC (Shigella sonnei E33) [µg/mL] | MIC [7] [µg/mL] | MIC [8] [µg/mL] | MIC [9] [µg/mL] | MIC [10] [µg/mL] | MIC [11] [µg/mL] | MIC (Sarcina lutea ATCC 9341) [µg/mL] | MIC [13] [µg/mL] | MIC [14] [µg/mL] | MIC [16] [µg/mL] | further results
1 | CCC1OC(=O)CC(O)C(C)C(OC2OC(C)C(O)C(N(C)C)C2O)C(CC=O)CC(C)C(=O)C=CC(C)=CC1COc1ccc(C)cc1 (centres unmarked) | ≤ 0.05 | 6.3 (≈ 9.16 µM) | > 100 | > 100 | 100 (≈ 145 µM) | 50 (≈ 72.7 µM) | > 100 | 25 (≈ 36.3 µM) | ≤ 0.05 | 50 (≈ 72.7 µM) | > 100 | 0.1 (≈ 0.145 µM) | 50 (≈ 72.7 µM) | 0.2 (≈ 0.291 µM) | 100 (≈ 145 µM) | 0.1 (≈ 0.145 µM) | ≤ 0.05 | ≤ 0.05 | ≤ 0.05 | ≤ 0.05 | MIC [12, 20]: 50 µg/mL (≈ 72.7 µM); MIC [15, 21]: 25 µg/mL (≈ 36.3 µM); MIC [17]: 0.2 µg/mL (≈ 0.291 µM); MIC [18]: 50 µg/mL (≈ 72.7 µM); MIC [19]: 0.2 µg/mL (≈ 0.291 µM)
2 | CCc1ccc(OCC2C=C(C)C=CC(=O)C(C)CC(CC=O)C(OC3OC(C)C(O)C(N(C)C)C3O)C(C)C(O)CC(=O)OC2CC)cc1 (centres unmarked) | 0.2 (≈ 0.285 µM) | 6.3 (≈ 8.98 µM) | > 100 | > 100 | > 100 | 25 (≈ 35.6 µM) | > 100 | 100 (≈ 142 µM) | 0.1 (≈ 0.142 µM) | > 100 | > 100 | 0.4 (≈ 0.57 µM) | 25 (≈ 35.6 µM) | 0.4 (≈ 0.57 µM) | > 100 | 0.4 (≈ 0.57 µM) | ≤ 0.05 | ≤ 0.05 | ≤ 0.05 | 0.1 (≈ 0.142 µM) | MIC [12, 20]: 25 µg/mL (≈ 35.6 µM); MIC [15, 21]: 12.5 µg/mL (≈ 17.8 µM); MIC [17]: 0.4 µg/mL (≈ 0.57 µM); MIC [18]: > 100 µg/mL; MIC [19]: 0.4 µg/mL (≈ 0.57 µM)
3 | CCC1OC(=O)CC(O)C(C)C(OC2OC(C)C(O)C(N(C)C)C2O)C(CC=O)CC(C)C(=O)C=CC(C)=CC1COc1ccc(Cl)cc1 (centres unmarked) | ≤ 0.05 | 3.1 (≈ 4.38 µM) | > 100 | > 100 | 50 (≈ 70.6 µM) | 25 (≈ 35.3 µM) | > 100 | 12.5 (≈ 17.6 µM) | ≤ 0.05 | 50 (≈ 70.6 µM) | 50 (≈ 70.6 µM) | 0.1 (≈ 0.141 µM) | 50 (≈ 70.6 µM) | 0.1 (≈ 0.141 µM) | 50 (≈ 70.6 µM) | 0.1 (≈ 0.141 µM) | ≤ 0.05 | ≤ 0.05 | ≤ 0.05 | ≤ 0.05 | MIC [12, 20]: 25 µg/mL (≈ 35.3 µM); MIC [15, 21]: 12.5 µg/mL (≈ 17.6 µM); MIC [17]: 0.1 µg/mL (≈ 0.141 µM); MIC [18]: 6.3 µg/mL (≈ 8.89 µM); MIC [19]: ≤ 0.05 µg/mL
4 | CCC1OC(=O)CC(O)C(C)C(OC2OC(C)C(O)C(N(C)C)C2O)C(CC=O)CC(C)C(=O)C=CC(C)=CC1COc1ccc(Br)cc1 (centres unmarked) | 0.1 (≈ 0.133 µM) | 3.1 (≈ 4.12 µM) | > 100 | > 100 | 50 (≈ 66.4 µM) | 25 (≈ 33.2 µM) | > 100 | 25 (≈ 33.2 µM) | ≤ 0.05 | 25 (≈ 33.2 µM) | 100 (≈ 133 µM) | 0.2 (≈ 0.266 µM) | 25 (≈ 33.2 µM) | 0.2 (≈ 0.266 µM) | 100 (≈ 133 µM) | 0.2 (≈ 0.266 µM) | ≤ 0.05 | ≤ 0.05 | ≤ 0.05 | ≤ 0.05 | MIC [12, 20]: 25 µg/mL (≈ 33.2 µM); MIC ([15]; Streptococcus pyogenes, 1022, Streptococcus pyogenes 1022): 12.5 µg/mL (≈ 16.6 µM); MIC [17]: 0.1 µg/mL (≈ 0.133 µM); MIC [18]: 12.5 µg/mL (≈ 16.6 µM); MIC [19]: 0.2 µg/mL (≈ 0.266 µM)
5 | CCC1OC(=O)CC(O)C(C)C(OC2OC(C)C(O)C(N(C)C)C2O)C(CC=O)CC(C)C(=O)C=CC(C)=CC1COc1ccc(Cl)cc1Cl (centres unmarked) | ≤ 0.05 | 3.1 (≈ 4.17 µM) | > 100 | > 100 | 25 (≈ 33.7 µM) | 12.5 (≈ 16.8 µM) | > 100 | 25 (≈ 33.7 µM) | ≤ 0.05 | > 100 | > 100 | 0.1 (≈ 0.135 µM) | 25 (≈ 33.7 µM) | 0.2 (≈ 0.269 µM) | > 100 | 0.1 (≈ 0.135 µM) | ≤ 0.05 | ≤ 0.05 | ≤ 0.05 | ≤ 0.05 | MIC ([12]; Staphylococcus aureus, 0127): 12.5 µg/mL (≈ 16.8 µM); MIC [15, 21]: 6.3 µg/mL (≈ 8.48 µM); MIC [17]: 0.2 µg/mL (≈ 0.269 µM); MIC [18]: 25 µg/mL (≈ 33.7 µM); MIC [19]: 0.1 µg/mL (≈ 0.135 µM)

Source: patent publication US4515941A, “23-Demycinosyldesmycosin derivatives” (Toyo Jozo Kabushiki Kaisha, priority 1982, dated 1985)
